In test [1] the target is T1, ER (Homo sapiens, UniProt P03372). In words: ER degradation by in-cell western (ICW), MCF7 cells. The format is cell-based. Particulars: for Dmax: MCF7, read-out: MCF7 Dmax (%); for DC50: MCF7 cells, ER in-cell western, 16 hours. Further details: endogenous in cells; host or cells: MCF-7. As to the method:
(§1) ERa degradative activity of compounds can be assessed in MCF-7 and T47D Cells. MCF-7 and T47D cell are seeded and are subsequently treated with the compounds at certain concentrations (e.g., 0.02 to 300 nM). DMSO can be used as vehicle control. Cells are fixed and are blocked with Intercept (PBS) Blocking Buffer (e.g., Li—COR, Odyssey Blocking Buffer), and are stained with ER (e.g., 1:500, Cell signaling) primary antibody for overnight at cold room. Secondary Antibody (e.g., IRDye 800CW Goat anti-Rabbit IgG) and CellTag 700 Stain are added in Intercept (PBS) Blocking Buffer. Finally, cell plate is placed in incubator to dry. Image and signal were captured on Odyssey@DLx Imaging System.
(§2) In-cell western blot analysis. Cells are seeded in multi-well plates (e.g., at 40,000 or 10,000 cells/well). Diluted compounds at certain concentration are added (final 0.5% DMSO) and cells are incubated for certain period of time (e.g., 16 hours). Formaldehyde (e.g., PBS:FA=9:1) is added and followed by washing with PBS. The cells are blocked with Licor blocking buffer (Li-Cor). The relative ER percentage in treated cells were obtained by comparing the values of treated wells to those in untreated and DMSO-treated wells as 100%.
(§3) In-cell western blot analysis. a. seed cells in black-sided/clear bottom 96- or 384-well plates at 40,000 or 10,000 cells/well, overnight; b. add diluted compounds (final 0.5% DMSO), 16 hours. […] RT 2 h, gentle shaking. Negative control: cells plus secondary antibodies (no primary antibodies); e. wash×4 with PBS +0.05-0.1% Tween 20, gentel shaking; f. anti-rabbit-680 and anti-mouse-800 (both 1:1000 in LiCor block +0.05% Tween20, RT 1 h, gentle shaking, no light. LI-COR: 0.2% to reduce background; g. wash×4 with PBS+0.05% Tween 20, gental shaking; h. add 100 μL or 25 μL of PBS to each well and read on CLX plate reader. The relative ER percentage in treated cells were obtained by comparing the values of treated wells to those in untreated and DMSO-treated wells as 100%.

The target in test [2] is CRBN/DDB1 (Homo sapiens, UniProt Q96SW2). Kind of test: biochemical.
Procedure: The CRBN-DDB1 binding potency of the present disclosure was determined using HTRF assay technology (Perkin Elmer). Compounds are serially diluted and are transferred multi-well plate. […] After one hour incubation at room temperature, the HTRF signals were read on Envision reader (Perkin Elemer).
The binding potency was determined using HTRF assay technology (Perkin Elmer). Compounds were serially diluted in DMSO and 0.2 μL volume was transferred to white 384-well plate. […] After one hour incubation at room temperature, the HTRF signals were read on Envision reader (Perkin Elemer).
Test [3] has as its target T1, ER. In words: ER degradation by in-cell western (ICW), T47D cells. The format is cell-based. Conditions: for DC50: T47D cells, ER in-cell western, 16 hours; for Dmax: T47D, read-out: T47D Dmax (%). Further details: endogenous in cells; host or cells: T47D. How it is done:
as §1, §2, §3

Structures can show the parent of a compound that is named as a salt. Bounds are passed on as bounds.

T1 sequence (P03372 whole entry): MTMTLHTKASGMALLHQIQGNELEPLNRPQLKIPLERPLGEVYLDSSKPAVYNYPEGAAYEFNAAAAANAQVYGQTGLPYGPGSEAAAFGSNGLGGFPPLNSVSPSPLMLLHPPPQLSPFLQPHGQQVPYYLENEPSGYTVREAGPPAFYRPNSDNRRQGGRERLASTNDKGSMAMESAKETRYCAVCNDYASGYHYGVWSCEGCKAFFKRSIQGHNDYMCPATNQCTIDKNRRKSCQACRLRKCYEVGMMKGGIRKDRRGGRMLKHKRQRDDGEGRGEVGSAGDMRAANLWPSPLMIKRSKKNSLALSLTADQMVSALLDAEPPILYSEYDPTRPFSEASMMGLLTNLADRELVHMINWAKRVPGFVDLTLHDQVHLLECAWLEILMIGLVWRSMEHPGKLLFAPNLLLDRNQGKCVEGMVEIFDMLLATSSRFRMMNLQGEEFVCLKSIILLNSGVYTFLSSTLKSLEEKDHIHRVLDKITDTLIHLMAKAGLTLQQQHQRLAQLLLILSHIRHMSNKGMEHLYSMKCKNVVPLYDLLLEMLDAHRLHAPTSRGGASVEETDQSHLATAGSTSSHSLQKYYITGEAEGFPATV
Sequence of CRBN/DDB1 (Q96SW2 whole entry): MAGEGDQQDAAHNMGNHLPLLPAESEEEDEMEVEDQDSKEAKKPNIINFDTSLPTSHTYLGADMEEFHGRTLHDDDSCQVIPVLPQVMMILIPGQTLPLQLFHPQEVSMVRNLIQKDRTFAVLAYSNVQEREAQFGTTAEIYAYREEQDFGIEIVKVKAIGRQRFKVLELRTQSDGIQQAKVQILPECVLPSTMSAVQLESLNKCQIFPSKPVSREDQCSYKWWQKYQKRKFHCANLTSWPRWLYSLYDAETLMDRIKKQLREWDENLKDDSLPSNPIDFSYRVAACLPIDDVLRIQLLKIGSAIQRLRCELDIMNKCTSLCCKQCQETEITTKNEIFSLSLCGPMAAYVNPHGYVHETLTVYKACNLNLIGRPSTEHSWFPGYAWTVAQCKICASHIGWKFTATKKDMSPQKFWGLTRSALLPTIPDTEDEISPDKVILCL
Sequence of CRBN/DDB1 (Q16531 whole entry, further chain): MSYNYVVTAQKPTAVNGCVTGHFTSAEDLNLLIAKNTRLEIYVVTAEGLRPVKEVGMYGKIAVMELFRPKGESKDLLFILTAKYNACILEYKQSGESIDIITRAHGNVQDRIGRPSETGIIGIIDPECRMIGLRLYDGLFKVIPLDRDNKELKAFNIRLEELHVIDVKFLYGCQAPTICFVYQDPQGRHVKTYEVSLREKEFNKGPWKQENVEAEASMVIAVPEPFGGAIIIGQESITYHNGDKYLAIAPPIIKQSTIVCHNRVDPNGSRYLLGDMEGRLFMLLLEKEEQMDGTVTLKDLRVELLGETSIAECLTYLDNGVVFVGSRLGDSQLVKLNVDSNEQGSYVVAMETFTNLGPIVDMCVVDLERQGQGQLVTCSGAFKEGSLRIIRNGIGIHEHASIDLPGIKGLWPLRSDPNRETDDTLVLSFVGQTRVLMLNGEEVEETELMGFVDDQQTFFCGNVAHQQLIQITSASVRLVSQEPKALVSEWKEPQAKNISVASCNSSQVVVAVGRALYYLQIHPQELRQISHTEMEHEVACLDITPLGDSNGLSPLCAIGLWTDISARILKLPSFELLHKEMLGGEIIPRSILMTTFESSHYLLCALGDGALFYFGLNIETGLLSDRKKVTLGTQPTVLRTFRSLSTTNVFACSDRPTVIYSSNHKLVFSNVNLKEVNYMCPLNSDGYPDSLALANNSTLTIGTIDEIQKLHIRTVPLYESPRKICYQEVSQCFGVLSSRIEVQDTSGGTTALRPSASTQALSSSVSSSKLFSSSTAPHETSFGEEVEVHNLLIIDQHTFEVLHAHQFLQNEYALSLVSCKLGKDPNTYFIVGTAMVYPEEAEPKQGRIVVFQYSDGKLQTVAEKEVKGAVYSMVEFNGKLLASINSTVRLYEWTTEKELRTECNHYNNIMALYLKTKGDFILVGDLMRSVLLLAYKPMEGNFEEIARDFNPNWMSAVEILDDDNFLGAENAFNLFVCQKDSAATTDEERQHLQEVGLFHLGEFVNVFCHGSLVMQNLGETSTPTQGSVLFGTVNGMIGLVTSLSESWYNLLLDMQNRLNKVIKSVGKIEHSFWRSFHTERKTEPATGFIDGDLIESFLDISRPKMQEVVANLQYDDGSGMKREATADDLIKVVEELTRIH

Take `O=C1CC[C@H](N2Cc3cc4c(cc3C2=O)OC[C@@H]2CN(CC3CC5(CCN(c6ccc([C@@H]7c8ccc(O)cc8OC[C@@H]7c7ccccc7)cc6)CC5)C3)CCN42)C(=O)N1` [CHR-A59, (S)-3-((S)-3-((7-(4-((3S,4R)-7-hydroxy-3-phenylchroman-4-yl)phenyl)-7-azaspiro[3.5]nonan-2-yl)methyl)-8-oxo-1,2,3,4,4a,5,8,10-octahydro-9H-pyrazino[1′,2′:4,5][1,4]oxazino[2,3-f]isoindol-9-yl)piperidine-2,6-dione]: in test [1], the Dmax (as a rule, the greatest extent of degradation seen) was in the range of 50 to 75% and the half-maximal degradation concentration (DC50) (usually the midpoint of the concentration-degradation curve) was in the range of 1 to 10 nM.
In turn, `O=C1CC[C@@H](N2Cc3cc4c(cc3C2=O)OC[C@H]2CN(CC3CCC5(CC3)CN(c3ccc([C@H]6c7ccc(O)cc7OC[C@H]6c6ccccc6)cc3)C5)CCN42)C(=O)N1` [CHR-A118, (R)-3-((R)-3-((2-(4-((3R,4S)-7-hydroxy-3-phenylchroman-4-yl)phenyl)-2-azaspiro[3.5]nonan-7-yl)methyl)-8-oxo-1,2,3,4,4a,5,8,10-octahydro-9H-pyrazino[1′,2′:4,5][1,4]oxazino[2,3-f]isoindol-9-yl)piperidine-2,6-dione] came in with a DC50 in test [1] of 1 to 10 nM.
As for `O=C1CC[C@H](NC(=O)c2cc3c(cc2F)N2CCNC[C@H]2CO3)C(=O)N1` [Compound A1, (S)—N—((S)-2,6-dioxopiperidin-3-yl)-9-fluoro-1,2,3,4,4a,5-hexahydrobenzo[b]pyrazino[1,2-d][1,4]oxazine-8-carboxamide hydrochloride], the IC50 (commonly the concentration at which inhibition is half-maximal) in test [2] stood at 21800 nM.
The same measure, in the same setting: as for `CN1CCN2c3cc(F)c(C(=O)N[C@H]4CCC(=O)NC4=O)cc3OC[C@@H]2C1` [Compound A2, (S)—N—((S)-2,6-dioxopiperidin-3-yl)-9-fluoro-3-methyl-1,2,3,4,4a,5-hexahydrobenzo[b]pyrazino[1,2-d][1,4]oxazine-8-carboxamide], the figure is 3640 nM; as for `CC(C)(C)OC(=O)N1CCN2c3cc4c(cc3OC[C@@H]2C1)C(=O)N(C1CCC(=O)NC1=O)C4` (stereo partly drawn) [Compound A3, tert-butyl (4aS)-9-(2,6-dioxopiperidin-3-yl)-8-oxo-1,2,4a,5,9,10-hexahydro-8H-pyrazino[1′,2′:4,5][1,4]oxazino[2,3-f]isoindole-3(4H)-carboxylate], 330 nM.
Same read-out and setting: as for `O=C1CC[C@H](N2Cc3cc4c(cc3C2=O)OC[C@@H]2CNCCN42)C(=O)N1` [Compound A8, (S)-3-((S)-8-oxo-3,4,4a,5-tetrahydro-1H-pyrazino [1′,2′:4,5][1,4]oxazino[2,3-f]isoindol-9(2H,8H,10H)-yl)piperidine-2,6-dione hydrochloride], the figure is 430 nM.
`C[C@@H]1Cc2c(ccc3[nH]ncc23)[C@@H](c2ccc(N3CCC4(CC3)CC(CN3CCN5c6cc7c(cc6OC[C@@H]5C3)C(=O)N([C@@H]3CCC(=O)NC3=O)C7)C4)cn2)N1CC1(F)CC1` [IDZ-A12, (R)-3-((S)-3-((7-(6-((6S,8R)-7-((1-fluorocyclopropyl)methyl)-8-methyl-6,7,8,9-tetrahydro-3H-pyrazolo[4,3-f]isoquinolin-6-yl)pyridin-3-yl)-7-azaspiro[3.5]nonan-2-yl)methyl)-8-oxo-1,2,3,4,4a,5,8,10-octahydro-9H-pyrazino[1′,2′:4,5][1,4]oxazino[2,3-f]isoindol-9-yl)piperidine-2,6-dione]: the DC50 in test [3] and in test [1] was less than 1 nM throughout. Besides, the greatest degradation seen (Dmax) in test [3] and in test [1] was greater than 75% each time.
For the molecule `C[C@@H]1Cc2c([nH]c3ccccc23)[C@@H](c2cnc(N3CCC4(CC3)CC(CN3CCN5c6ccc(C(=O)N[C@H]7CCC(=O)NC7=O)nc6OC[C@H]5C3)CO4)nc2)N1CC(F)F` (stereo partly drawn) [IND-A63, (4aR)-3-((8-(5-((1R,3R)-2-(2,2-difluoroethyl)-3-methyl-2,3,4,9-tetrahydro-1H-pyrido[3,4-b]indol-1-yl)pyrimidin-2-yl)-1-oxa-8-azaspiro[4.5]decan-3-yl)methyl)-N—((S)-2,6-dioxopiperidin-3-yl)-1,2,3,4,4a,5-hexahydropyrazino[1,2-d]pyrido[2,3-b][1,4]oxazine-8-carboxamide], in test [3], the 50% degradation concentration (DC50) was in the range of 1 to 10 nM and the Dmax lay within 50 to 75%. Besides, in test [1], the Dmax was in the range of 50 to 75% and the DC50 was in the range of 1 to 10 nM.

These data come from patent US20260265271A1, “Cereblon Ligands and Uses Thereof” (REGENTS OF THE UNIVERSITY OF MICHIGAN, priority 2022, published 2026).
